Results reported in patent publication US20260077018A1, “TREATMENT OF MILD TRAUMATIC BRAIN INJURY” (OXEIA BIOPHARMACEUTICALS, INC., priority 2022, published 2026).
No end group written: not given here. *: point of attachment. Octanoyl = CCCCCCCC(=O)*

Test system: persistently symptomatic concussion patients
Assay: Phase 2 study of OXE-103 in persistently symptomatic concussion: PCSS symptom scoring
Assay type: in vivo, human
Conditions: for 30% Responders - PCSS: Number of Responders / 30% Responders - PCSS: Responder % / 20% Responders - PCSS: Number of Responders / 20% Responders - PCSS: Responder %: Treated, 13 subjects; for PCSS symptom balance_problems / PCSS symptom difficulty_concentrating / PCSS symptom difficulty_remembering / PCSS symptom dizziness / PCSS symptom drowsiness / PCSS symptom fatigue / PCSS symptom feeling_in_a_fog / PCSS symptom feeling_more_emotional / PCSS symptom feeling_slowed_down / PCSS symptom headache / PCSS symptom irritability / PCSS symptom nausea / PCSS symptom neck_pain / PCSS symptom nervous_anxious / PCSS symptom numbness_or_tingling / PCSS symptom sadness / PCSS symptom sensitivity_to_light / PCSS symptom sensitivity_to_noise / PCSS symptom sleeping_less_than_usual / PCSS symptom sleeping_more_than_usual / PCSS symptom trouble_falling_asleep / PCSS symptom visual_problems / PCSS symptom vomiting: aggregated
Excerpt: Describe the change in symptom burden in sub-acute concussion for the two groups. A maximum of 50 subjects are enrolled, but recruiting stops if each arm has 20 participants, diagnosed with persistent concussion symptoms 28 days post injury who complete the study. Patients are randomized 1:1 to placebo versus OXE-103. The Post-Concussion Symptom Score questionnaire (PCSS) is used as an overall measure of symptom burden. The number of symptoms and severity at each time point are also measures of interest. In addition, subjects are asked to identify and rank the 4 most bothersome symptoms. Without being bound by theory, it is hypothesized that changes in these most bothersome symptoms have a higher correlation to improvement in quality of life. A visual comparison of change in the two groups is made. A change of 20% is considered to be clinically meaningful. This primary aim describes the change in symptoms between day 1 and day 14.
Described herein is a randomized, double-blind, placebo-controlled design where 40 subjects will be randomized to either a placebo cohort or a treatment with OXE-103 cohort. We randomize using the RedCap database. The database is set up to share randomization allocation only with the investigational pharmacy. All subjects are consented and begin the screening period within 28 days post-injury. There is a 7-day screening period prior to randomization and commencement of study treatment to allow for assessment of stability of symptom burden. This screening period must start no later than 28 days post-injury. Starting with Day 1 (end of screening period), the treatment cohort receives OXE-103 40ug/kg SC twice daily by self-injection and the placebo group receives a placebo injection SC twice daily. Study drug and placebo are maintained and dispensed by Investigational Pharmacy. Subjects receive an 8-day supply of syringes pre-loaded with OXE-103 or placebo. Each cohort receives the 2nd set of syringes with OXE-103 or placebo at the day 7 visit. No therapies other than OXE-103 are administered during the 14-day treatment period to either cohort. After completion of 14 days of either placebo or OXE-103 treatment, starting with the Day 14 visit, other medications and therapies can be initiated for either cohort as needed.
Symptom reduction (AIM 1): Our primary goal is to describe the change in number of symptoms and/or severity in sub-acute concussion with treatment with OXE-103 using the PCSS at days 1 and 15. We will also collect data at days 21 and 44 to potentially describe long term changes and potential lasting effect (AIM 4).
Subjects complete the PCSS at the following timepoints[17]: upon signing consent (score must 20) (day −7), mid-way through the screening period (day −3), prior to assignment of a treatment cohort (score must 20) (day 1), as well as days 4, 8, 11, 15, 21 and 44. Subjects are instructed to record their symptoms at the same time of day for each assessment timepoint. There can be a two-hour window either way. (e.g. 12 PM+/−2 hrs.) The PCSS is recorded via a RedCap survey. The PCSS is a self-reported assessment of 22 symptoms using a Likert-type scale ranging from 0-6, with 0 indicating no difficulty with the outlined symptom and ratings of 1-6 representing mild-to-severe difficulty with the symptom. The reliability and validity of the PCSS are well documented We also ask subjects to rank their 4 most burdensome symptoms (4MBS) at Day 1 and we analyze these separately. As stated in the Specific Aims the purpose of this study is to collect data that would further refine clinical endpoints that could be used for larger Phase 2 studies and possibly lead to the establishment of pivotal endpoints for Phase 3 registration trials. The 22 symptom PCSS assessment is designed to cover the full spectrum of concussion related symptoms across cognitive, emotional and somatic domains. In that regard the PCSS is particularly useful for diagnosis and monitoring recovery of patients post injury. […]

ghrelin (GSS(Octanoyl)FLSPEHQRVQQRKESKKPPAKLQPR; UniProt Q9UBU3 24-51, looked up) [OXE-103, naturally occurring peptide comprising 28 amino acids that include an N-octanoyl group at the 3-position of serine]
30% Responders - PCSS: Number of Responders (Day 11): 7 | 30% Responders - PCSS: Responder % (Day 11): 54% | PCSS symptom balance_problems (Day 15, OXE-103 Treated): 22 | PCSS symptom difficulty_concentrating (Day 15, OXE-103 Treated): 30 | PCSS symptom difficulty_remembering (Day 15, OXE-103 Treated): 26 | PCSS symptom dizziness (Day 15, OXE-103 Treated): 21 | PCSS symptom drowsiness (Day 15, OXE-103 Treated): 25 | PCSS symptom fatigue (Day 15, OXE-103 Treated): 30 | PCSS symptom feeling_in_a_fog (Day 15, OXE-103 Treated): 20 | PCSS symptom feeling_more_emotional (Day 15, OXE-103 Treated): 22 | PCSS symptom feeling_slowed_down (Day 15, OXE-103 Treated): 23 | PCSS symptom headache (Day 15, OXE-103 Treated): 25 | PCSS symptom irritability (Day 15, OXE-103 Treated): 25 | PCSS symptom nausea (Day 15, OXE-103 Treated): 6 | PCSS symptom neck_pain (Day 15, OXE-103 Treated): 20 | PCSS symptom nervous_anxious (Day 15, OXE-103 Treated): 23 | PCSS symptom numbness_or_tingling (Day 15, OXE-103 Treated): 5 | PCSS symptom sadness (Day 15, OXE-103 Treated): 21 | PCSS symptom sensitivity_to_light (Day 15, OXE-103 Treated): 18 | PCSS symptom sensitivity_to_noise (Day 15, OXE-103 Treated): 16 | PCSS symptom sleeping_less_than_usual (Day 15, OXE-103 Treated): 22 | PCSS symptom sleeping_more_than_usual (Day 15, OXE-103 Treated): 15 | PCSS symptom trouble_falling_asleep (Day 15, OXE-103 Treated): 25 | PCSS symptom visual_problems (Day 15, OXE-103 Treated): 17 | PCSS symptom vomiting (Day 15, OXE-103 Treated): 1 | 20% Responders - PCSS: Number of Responders (Day 15): 9 | 20% Responders - PCSS: Responder % (Day 15): 69% | 30% Responders - PCSS: Number of Responders (Day 15): 7 | 30% Responders - PCSS: Responder % (Day 15): 54% | PCSS symptom balance_problems (Day 21, OXE-103 Treated): 23 | PCSS symptom difficulty_concentrating (Day 21, OXE-103 Treated): 24 | PCSS symptom difficulty_remembering (Day 21, OXE-103 Treated): 26 | PCSS symptom dizziness (Day 21, OXE-103 Treated): 23 | PCSS symptom drowsiness (Day 21, OXE-103 Treated): 26 | PCSS symptom fatigue (Day 21, OXE-103 Treated): 28 | PCSS symptom feeling_in_a_fog (Day 21, OXE-103 Treated): 24 | PCSS symptom feeling_more_emotional (Day 21, OXE-103 Treated): 19 | PCSS symptom feeling_slowed_down (Day 21, OXE-103 Treated): 26 | PCSS symptom headache (Day 21, OXE-103 Treated): 23 | PCSS symptom irritability (Day 21, OXE-103 Treated): 21 | PCSS symptom nausea (Day 21, OXE-103 Treated): 12 | PCSS symptom neck_pain (Day 21, OXE-103 Treated): 21 | PCSS symptom nervous_anxious (Day 21, OXE-103 Treated): 16 | PCSS symptom numbness_or_tingling (Day 21, OXE-103 Treated): 6 | PCSS symptom sadness (Day 21, OXE-103 Treated): 14 | PCSS symptom sensitivity_to_light (Day 21, OXE-103 Treated): 21 | PCSS symptom sensitivity_to_noise (Day 21, OXE-103 Treated): 18 | PCSS symptom sleeping_less_than_usual (Day 21, OXE-103 Treated): 19 | PCSS symptom sleeping_more_than_usual (Day 21, OXE-103 Treated): 15 | PCSS symptom trouble_falling_asleep (Day 21, OXE-103 Treated): 24 | PCSS symptom visual_problems (Day 21, OXE-103 Treated): 19 | PCSS symptom vomiting (Day 21, OXE-103 Treated): 0 | 20% Responders - PCSS: Number of Responders (Day 21): 9 | 20% Responders - PCSS: Responder % (Day 21): 69% | 30% Responders - PCSS: Number of Responders (Day 21): 8 | 30% Responders - PCSS: Responder % (Day 21): 62% | PCSS symptom balance_problems (Day 44, OXE-103 Treated): 12 | PCSS symptom difficulty_concentrating (Day 44, OXE-103 Treated): 16 | PCSS symptom difficulty_remembering (Day 44, OXE-103 Treated): 21 | PCSS symptom dizziness (Day 44, OXE-103 Treated): 9 | PCSS symptom drowsiness (Day 44, OXE-103 Treated): 16 | PCSS symptom fatigue (Day 44, OXE-103 Treated): 17 | PCSS symptom feeling_in_a_fog (Day 44, OXE-103 Treated): 16 | PCSS symptom feeling_more_emotional (Day 44, OXE-103 Treated): 7 | PCSS symptom feeling_slowed_down (Day 44, OXE-103 Treated): 18 | PCSS symptom headache (Day 44, OXE-103 Treated): 15 | PCSS symptom irritability (Day 44, OXE-103 Treated): 10 | PCSS symptom nausea (Day 44, OXE-103 Treated): 7 | PCSS symptom neck_pain (Day 44, OXE-103 Treated): 14 | PCSS symptom nervous_anxious (Day 44, OXE-103 Treated): 11 | PCSS symptom numbness_or_tingling (Day 44, OXE-103 Treated): 6 | PCSS symptom sadness (Day 44, OXE-103 Treated): 8 | PCSS symptom sensitivity_to_light (Day 44, OXE-103 Treated): 9 | PCSS symptom sensitivity_to_noise (Day 44, OXE-103 Treated): 13 | PCSS symptom sleeping_less_than_usual (Day 44, OXE-103 Treated): 11 | PCSS symptom sleeping_more_than_usual (Day 44, OXE-103 Treated): 8 | PCSS symptom trouble_falling_asleep (Day 44, OXE-103 Treated): 16 | PCSS symptom visual_problems (Day 44, OXE-103 Treated): 9 | PCSS symptom vomiting (Day 44, OXE-103 Treated): 1 | 20% Responders - PCSS: Number of Responders (Day 44): 11 | 20% Responders - PCSS: Responder % (Day 44): 85% | 30% Responders - PCSS: Number of Responders (Day 44): 9 | 30% Responders - PCSS: Responder % (Day 44): 69% | PCSS symptoms, change from Day 1 to Day 44 (FIG. 14) (aggregated across 11 OXE-103 treatment responders per symptom): reduction in all symptoms | balance_problems % change from day 1 to day 44 (reduction, OXE-103 Treated): 60% | difficulty_concentrating % change from day 1 to day 44 (reduction, OXE-103 Treated): 65% | difficulty_remembering % change from day 1 to day 44 (reduction, OXE-103 Treated): 56% | dizziness % change from day 1 to day 44 (reduction, OXE-103 Treated): 76% | drowsiness % change from day 1 to day 44 (reduction, OXE-103 Treated): 58% | fatigue % change from day 1 to day 44 (reduction, OXE-103 Treated): 60% | feeling_in_a_fog % change from day 1 to day 44 (reduction, OXE-103 Treated): 65% | feeling_more_emotional % change from day 1 to day 44 (reduction, OXE-103 Treated): 77% | feeling_slowed_down % change from day 1 to day 44 (reduction, OXE-103 Treated): 61% | headache % change from day 1 to day 44 (reduction, OXE-103 Treated): 59% | irritability % change from day 1 to day 44 (reduction, OXE-103 Treated): 71% | nausea % change from day 1 to day 44 (reduction, OXE-103 Treated): 61% | neck_pain % change from day 1 to day 44 (reduction, OXE-103 Treated): 63% | nervous_anxious % change from day 1 to day 44 (reduction, OXE-103 Treated): 69% | numbness_or_tingling % change from day 1 to day 44 (reduction, OXE-103 Treated): 63% | sadness % change from day 1 to day 44 (reduction, OXE-103 Treated): 71% | sensitivity_to_light % change from day 1 to day 44 (reduction, OXE-103 Treated): 74% | sensitivity_to_noise % change from day 1 to day 44 (reduction, OXE-103 Treated): 64% | sleeping_less_than_usual % change from day 1 to day 44 (reduction, OXE-103 Treated): 27% | sleeping_more_than_usual % change from day 1 to day 44 (reduction, OXE-103 Treated): 67% | trouble_falling_asleep % change from day 1 to day 44 (reduction, OXE-103 Treated): 57% | visual_problems % change from day 1 to day 44 (reduction, OXE-103 Treated): 70% | vomiting % change from day 1 to day 44 (reduction, OXE-103 Treated): 50%
